Data from patent US10538512B2, “Aminoacylindazole immunomodulators for treatment of autoimmune diseases” (The Rockefeller University, priority 2016, dated 2020).

How the values were obtained:
Human alpha-thrombin = target: T1, Human alpha-thrombin (Homo sapiens, UniProt P00734); assay: Thrombin counterscreen for selectivity, fluorogenic substrate assay; assay type: biochemical; details: Human alpha-thrombin 12.5 nM, Boc-Val-Pro-Arg-AMC 20 μM, 10 min preincubation
T1 construct: Human alpha-thrombin (Enzyme Research Labs); purchased Enzyme Research Labs
Method: Counterscreens for Selectivity:
In a 96-well white opaque plate, 80 μl of assay buffer was added to each well. Test compounds were added, and serially diluted as above, to generate a concentration range of approximately 1-100 μM. […] 80 μl of this enzyme solution was added to the assay wells. The enzyme/compound mixtures were incubated for 10 minutes at room temperature. Fluorogenic substrate (Boc-Val-Pro-Arg-7-amido-4-methylcoumarin; Sigma) was added to assay wells at a final concentration of 20 μM. The assay plate was spun for 1 minute at 1500 g and then read at 37° C. in a SpectraMax M2 plate reader (λex=380 nm and λem=460 nm). Activity was quantified as the rate of change in fluorescence, which corresponds to the rate of substrate cleavage.

Human FXIIa = target: T2, Human FXIIa (Homo sapiens, UniProt P00748); assay: Factor XIIa (FXIIa) inhibitory activity, chromogenic substrate assay; assay type: biochemical; details: Human FXIIa 12.5 nM, Pefachrome XIIa 400 μM, 10 min preincubation
T2 construct: active coagulation factor XII (FXIIa); purchased Enzyme Research Labs
T2 sequence (P00748 373-615 limits assumed): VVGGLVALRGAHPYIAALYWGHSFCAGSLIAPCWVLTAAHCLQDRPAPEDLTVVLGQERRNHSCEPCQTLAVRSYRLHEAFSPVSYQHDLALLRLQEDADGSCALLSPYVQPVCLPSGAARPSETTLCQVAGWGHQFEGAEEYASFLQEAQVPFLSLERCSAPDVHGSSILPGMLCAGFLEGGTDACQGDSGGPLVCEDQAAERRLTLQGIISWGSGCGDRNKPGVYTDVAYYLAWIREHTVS
T2 sequence (P00748 20-372 partner limits assumed): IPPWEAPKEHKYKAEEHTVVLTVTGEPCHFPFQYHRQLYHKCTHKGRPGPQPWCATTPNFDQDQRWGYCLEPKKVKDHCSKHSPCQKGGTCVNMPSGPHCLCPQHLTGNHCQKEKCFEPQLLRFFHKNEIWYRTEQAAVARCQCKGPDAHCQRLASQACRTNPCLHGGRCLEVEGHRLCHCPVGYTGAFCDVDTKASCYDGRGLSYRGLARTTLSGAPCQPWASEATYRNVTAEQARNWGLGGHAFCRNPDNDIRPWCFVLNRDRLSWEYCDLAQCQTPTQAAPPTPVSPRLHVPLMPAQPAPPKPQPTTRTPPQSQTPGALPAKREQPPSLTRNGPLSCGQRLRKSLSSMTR
In short: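 Activity was taken as the rate of absorbance increase at 405 nm, read at 37 °C after adding 400 μM (final) Pefachrome XIIa. Compounds spanning roughly 1–100 μM were first preincubated with enzyme for 10 min at room temperature in HEPES pH 7.4-buffered HBSS/TBS-Tween.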

SMILES | IC50 (Human alpha-thrombin) | IC50 (Human FXIIa)
Nc1c2c(nn1C(=O)c1cccc3[nH]c(C4CC4)cc13)CCCC2 (single isomer, unassigned) [Example 53, (3-amino-4,5,6,7-tetrahydroindazol-2-yl)(2-cyclopropyl-1H-indol-4-yl)methanone] | 28 µM | 0.02 µM
Nc1nn(C(=O)[C@@H]2CCNc3ccccc32)c2c1C[C@H](O)CC2 (single isomer, unassigned) [Example 168, ((5R*)-3-amino-5-hydroxy-4,5,6,7-tetrahydroindazol-1-yl)((4R*)-1,2,3,4-tetrahydroquinolin-4-yl)methanone] | > 100 µM | > 100 µM
Cc1cc2c(C(=O)n3nc(N)c4c3CCC(F)(F)C4)cccc2[nH]1 [Example 122, (3-amino-5,5-difluoro-4,5,6,7-tetrahydro-2H-indazol-1-yl)(2-methyl-1H-indol-4-yl)methanone] | 25 µM | 0.7 µM
CS(=O)(=O)N1CCC(C(=O)n2nc3c(c2N)CCCC3)c2ccccc21 (centres unmarked) [Example 99, (3-amino-4,5,6,7-tetrahydroindazol-2-yl)(1-(methylsulfonyl)-1,2,3,4-tetrahydroquinolin-4-yl)methanone] | 22 µM | 1 µM
Nc1c2c(nn1C(=O)C1CCNc3ccccc31)CCCC2 (single isomer, unassigned) [Example 76, (3-amino-4,5,6,7-tetrahydroindazol-2-yl)(1,2,3,4-tetrahydroquinolin-4-yl)methanone] | > 100 µM | 0.3 µM
Nc1nn(C(=O)c2cccc3c2ccn3-c2ccccc2)c2c1CCCC2 (single isomer, unassigned) [Example 21, (3-amino-4,5,6,7-tetrahydroindazol-1-yl)(1-phenyl-1H-indol-4-yl)methanone] | > 100 µM | 
C=Cc1cc2c(C(=O)n3nc(N)c4c3CCCC4)cccc2[nH]1 (single isomer, unassigned) [Example 71, (3-amino-4,5,6,7-tetrahydroindazol-1-yl)(2-vinyl-1H-indol-4-yl)methanone] | 55 µM | 
Nc1c2c(nn1C(=O)[C@@H]1CCNc3ccccc31)CC[C@@H](O)C2 (single isomer, unassigned) [Example 166, ((5R*)-3-amino-5-hydroxy-4,5,6,7-tetrahydroindazol-2-yl)((4R*)-1,2,3,4-tetrahydroquinolin-4-yl)methanone] | > 100 µM | 
Nc1nn(C(=O)c2c[nH]c3ccccc23)c2c1CCCC2 [Example 155] | > 100 µM | 
CN1CCC(C(=O)n2nc(N)c3c2CCCC3)c2ccccc21 (single isomer, unassigned) [Example 26, (3-amino-4,5,6,7-tetrahydroindazol-1-yl)(1-methyl-1,2,3,4-tetrahydroquinolin-4-yl)methanone] | > 80 µM | 
CCc1cc2c([nH]1)CCCC2C(=O)n1nc2c(c1N)CCCC2 (single isomer, unassigned) [Example 84, (R*)-(3-amino-4,5,6,7-tetrahydroindazol-2-yl)(2-ethyl-4,5,6,7-tetrahydro-1H-indol-4-yl)methanone] |  | 3.3 µM
CN1CCC(C(=O)n2nc3c(c2N)CCCC3)c2cccnc21 (centres unmarked) [Example 87, (3-amino-4,5,6,7-tetrahydroindazol-2-yl)(1-methyl-1,2,3,4-tetrahydro-1,8-naphthyridin-4-yl)methanone] |  | 5 µM
Cc1cc2c(C(=O)n3ncc4c3CCCC4)cccc2[nH]1 [Example 160] |  | 6 µM
CO[C@H]1CCc2nn(C(=O)[C@@H]3CCNc4ccc(F)cc43)c(N)c2C1 (single isomer, unassigned) [Example 176, ((5S*)-3-amino-5-methoxy-4,5,6,7-tetrahydroindazol-2-yl)((4R*)-6-fluoro-1,2,3,4-tetrahydroquinolin-4-yl)methanone] |  | > 100 µM
Nc1nn(C(=O)[C@@H]2CCNc3ccc(F)cc32)c2c1C[C@@H](O)CC2 (single isomer, unassigned) [Example 136, ((5S*)-3-amino-5-hydroxy-4,5,6,7-tetrahydroindazol-1-yl)((4R*)-6-fluoro-1,2,3,4-tetrahydroquinolin-4-yl)methanone] |  | > 90 µM
